For data set [1], the system named is HIF2α-regulated expression of the endogenous target gene hEGLN3 in 786-O cells. The experiment in a line: Cellular iScript assay for HIF2α (quantitative RT-PCR of hEGLN3). The class given is cell-based, human. The conditions noted are these: Homo sapiens, 786-0, 48 hours incubation. In short, it runs like this: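 786-O cells were exposed to eleven 2-fold compound dilutions for 48 h at 37° C. Lysates underwent one-step TaqMan qRT-PCR for hEGLN3 with beta-actin as reference; 2^(−ΔΔCt) versus DMSO, as % of control, was fit with a four-parameter model to give IC50.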

The test system of data set [2] is HIF2α-dependent transcription in 786-O-HRE-Luc cells. Description: In vitro cellular hypoxia response element (HRE) reporter gene assay (RGA) for HIF2α. The conditions noted are these: Homo sapiens, 24 hours incubation. Format: cell-based, human. In short, it runs like this:
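Renal carcinoma cells carrying a 4×HRE-driven PEST-destabilised firefly luciferase were treated a day after seeding with eleven 2-fold compound dilutions (0.1% DMSO) for 24 h at 37° C. BrightGlo luminescence, background-subtracted and expressed as % of DMSO control, was fitted four-parametrically for IC50.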
A general note: A reporter such as luciferase makes a cellular process visible.

Data set [3] addresses T1, HIF2α PAS-B domain (236-350, biotinylated on the N-terminus) (Homo sapiens (Human), UniProt Q99814). The experiment in a line: biochemical.
Method: (§1) The assay buffer contained 50 mM Tris-HCl pH7 (Sigma), 20 mM NaCl (Fluka), 0.02% BSA (Sigma), 0.005% Triton X-100 (Pierce) and 1 mM DTT (Fluka). After a 30 min incubation period, 5 μL Streptavidin PVT SPA Beads (Perkin Elmer) at 1.2 mg/mL, diluted in the buffer, were added.
For data set [4] the following is noted: 25° C.; for hygroscopicity assignment (DVS): 0 to 95% RH. Here is the method: Dynamic vapor sorption was performed using a SMS Advantage system. Approximately 10 mg of sample was subjected to varying humidities between 0% RH and 95% RH at 25° C. Evaluation was performed using the system software.
In data set [5] the target is T1, HIF2α PAS-B domain (236-350, biotinylated on the N-terminus). Description: In vitro SPA with the PAS-B domain of HIF2α (competition binding with radio-ligand). The conditions noted are these: read-out: affinity of the non-labeled ligand, IC50.
Method: as §1
Data set [6] shares this target.
Method: as §1

Read-outs that look alike come from different tables or passages of the source.

17 molecules from US12226405B2, “Compounds and compositions for inhibiting the activity of HIF2-alpha and their methods of use” (Novartis AG, priority 2020, dated 2025) can be followed below.

T1 sequence (Q99814 236-350): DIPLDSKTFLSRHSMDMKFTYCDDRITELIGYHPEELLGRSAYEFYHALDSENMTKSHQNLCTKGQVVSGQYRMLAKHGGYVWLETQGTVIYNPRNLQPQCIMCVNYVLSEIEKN

For orientation: IC50 means the concentration at which inhibition is half-maximal. Consider `FC(F)OC1=CC(C(F)(F)F)=CN2CC3(CCCc4c(Br)cccc43)N=C12` (racemic) [Example 81, rac-5′-bromo-8-(difluoromethoxy)-6-(trifluoromethyl)-3′,4′-dihydro-2′H,3H-spiro[imidazo[1,2-a]pyridine-2,1′-naphthalene]], for which the IC50 in data set [1] was 57 nM; in data set [2], 143 nM; in data set [3] it was at most 10 nM.

As for `FC(F)OC1=CC(C(F)(F)F)=CN2CC3(CCCc4cnccc43)N=C12` (racemic) [Example 93, rac-8-(difluoromethoxy)-6-(trifluoromethyl)-7′,8′-dihydro-3H,6′H-spiro[imidazo[1,2-a]pyridine-2,5′-isoquinoline]], the IC50 in data set [1] stood at 178 nM; in data set [3], 12 nM.

For `N#CC1=CN2C[C@@]3(CSCc4c(F)cccc43)N=C2C(OC(F)F)=C1` [Example 68, (S)-8-(difluoromethoxy)-8′-fluoro-3H-spiro[imidazo[1,2-a]pyridine-2,4′-isothiochroman]-6-carbonitrile], the values for the concentration for half-maximal inhibition (IC50) in data set [1], in data set [2] and in data set [3] were 111 nM, 670 nM and 11 nM, respectively.

For `O[C@@H]1c2c(ccc(Br)c2F)[C@]2(CN3C=C(C(F)(F)F)C=C(OC(F)F)C3=N2)CC1(F)F` [Example 19, (1′S,4′R)-6′-bromo-8-(difluoromethoxy)-3′,3′,5′-trifluoro-6-(trifluoromethyl)-3′,4′-dihydro-2′H,3H-spiro[imidazo[1,2-a]pyridine-2,1′-naphthalen]-4′-ol], the IC50 stood at 144 nM in data set [1], 446 nM in data set [2] and 36 nM in data set [3].

Consider `O=C1c2c(F)cccc2[C@@]2(C[C@H]1F)CN1C=C(C(F)(F)F)C=C(OC(F)F)C1=N2` [Example 20, (1′S,3′R)-8-(difluoromethoxy)-3′,5′-difluoro-6-(trifluoromethyl)-2′H,3H-spiro[imidazo[1,2-a]pyridine-2,1′-naphthalen]-4′(3′H)-one], for which the IC50 in data set [1] came out at 155 nM; in data set [2] it was 892 nM; in data set [3], 15 nM.

Regarding `FC1=CC(C(F)(F)F)=CN2CC3(CCCc4c3ccc(F)c4F)N=C12` (racemic) [Example 78, rac-5′,6′,8-trifluoro-6-(trifluoromethyl)-3′,4′-dihydro-2′H,3H-spiro[imidazo[1,2-a]pyridine-2,1′-naphthalene]], the IC50 worked out at 161 nM in data set [1], 4230 nM in data set [2] and 8 nM in data set [3].

Turning to `FC(F)OC1=CC(C(F)(F)F)=CN2C[C@@]3(CCC(F)(F)c4c3ccnc4Cl)N=C12.O=C(O)/C=C/C(=O)O`, in data set [4], the “hygroscopicity assignment (DVS)” value is listed as “non-hygroscopic”; the “mass difference between 0 and 95% RH (DVS)” value is listed as “less than 0.1 weight %”.

As for `Fc1cccc2c1OC[C@H](F)[C@@]21CN2C=C(C(F)(F)F)C=C(OC(F)F)C2=N1` (racemic) [Example 101, rac-8′-(difluoromethoxy)-3,8-difluoro-6′-(trifluoromethyl)-3′H-spiro[chromane-4,2′-imidazo[1,2-a]pyridine]], the IC50 in data set [1] is 149 nM; in data set [3], 15 nM.

With `Fc1c(Br)ccc2c1CC[C@@]21CN2C=C(C(F)(F)F)C=C(OC(F)F)C2=N1` [Example 1, (S)-5′-bromo-8-(difluoromethoxy)-4′-fluoro-6-(trifluoromethyl)-2′,3′-dihydro-3H-spiro[imidazo[1,2-a]pyridine-2,1′-indene]], the results for the IC50 in data set [1], in data set [2] and in data set [3] were 65 nM, 232 nM and at most 3 nM, respectively.

For `Fc1c(C(F)(F)F)ccc2c1COCC21CN2C=C(C(F)(F)F)C=C(OC(F)F)C2=N1` (racemic) [Example 108, rac-8-(difluoromethoxy)-8′-fluoro-6,7′-bis(trifluoromethyl)-3H-spiro[imidazo[1,2-a]pyridine-2,4′-isochroman]], the IC50 in data set [1] turned out to be 156 nM; in data set [2] it was 692 nM; in data set [3], 29 nM.

For the molecule `O=[N+]([O-])c1c(Nc2cc(F)cc(Cl)c2)ccc2nonc12` [N-(3-chloro-5-fluorophenyl-4-t)-4-nitrobenzo[c][1,2,5]oxadiazol-7-t-5-amine, reference compound], the IC50 in data set [5] came out at 82 ± 18 nM.

Regarding `O[C@H]1c2c(ccc(Br)c2F)[C@]2(CN3C=C(C(F)(F)F)C=C(OC(F)F)C3=N2)CC1(F)F` [Example 18, (1′S,4'S)-6′-bromo-8-(difluoromethoxy)-3′,3′,5′-trifluoro-6-(trifluoromethyl)-3′,4′-dihydro-2′H,3H-spiro[imidazo[1,2-a]pyridine-2,1′-naphthalen]-4′-ol], the figures for the IC50 in data set [1], in data set [2] and in data set [3] were 37 nM, 92 nM and 6 nM, respectively.

For the molecule `FC(F)OC1=CC(C(F)(F)F)=CN2CC3(CCCOc4c(Cl)cccc43)N=C12` (racemic) [Example 118, rac-9-chloro-8′-(difluoromethoxy)-6′-(trifluoromethyl)-3,4-dihydro-2H,3′H-spiro[benzo[b]oxepine-5,2′-imidazo[1,2-a]pyridine]], the IC50 in data set [1] was found to be 161 nM; in data set [2], 1030 nM; in data set [3], 16 nM.

Regarding `FC(F)OC1=CC(C(F)(F)F)=CN2C[C@@]3(CCC(F)(F)c4c3ccnc4Cl)N=C12`, in data set [4], the “hygroscopicity assignment (DVS)” value was “non-hygroscopic”; the “mass difference between 0 and 95% RH (DVS)” value is reported as “less than 0.05 weight %”.

In data set [3], `FC(F)OC1=CC(C(F)(F)F)=CN2C[C@]3(CCOc4cc(C(F)(F)F)ccc43)N=C12` [(R)-8′-(difluoromethoxy)-6′,7-bis(trifluoromethyl)-3′H-spiro[chroman-4,2′-imidazo[1,2-a]pyridine]] showed an IC50 above 10000 nM.

As for `O[C@H]1c2c(ccc(Br)c2F)[C@@]2(C[C@H]1F)CN1C=C(C(F)(F)F)C=C(OC(F)F)C1=N2` [Example 10, (1′S,3′R,4'S)-6′-bromo-8-(difluoromethoxy)-3′,5′-difluoro-6-(trifluoromethyl)-3′,4′-dihydro-2′H,3H-spiro[imidazo[1,2-a]pyridine-2,1′-naphthalen]-4′-ol], the IC50 in data set [1] is 77 nM; in data set [2] it was 207 nM; in data set [6] it was 21 nM.

Turning to `N#CC1=CN2C[C@@]3(CCSc4c3ccc(F)c4F)N=C2C(OC(F)F)=C1` [Example 112, (S)-8-(difluoromethoxy)-7′,8′-difluoro-3H-spiro[imidazo[1,2-a]pyridine-2,4′-thiochromane]-6-carbonitrile], the IC50 stood at 41 nM in data set [1], 116 nM in data set [2] and 7 nM in data set [6].
